# Assay results taken from patent publication US8357707B2, “2-carboxamide cycloamino ureas” (Novartis AG, priority 2009, dated 2013).
# How the values were obtained:
# Type in all cases: biochemical
# PI3Kγ = target: T1, PI3Kγ (Homo sapiens, UniProt P48736, Q459R); assay: PI3K KinaseGlo assay, PI3Kgamma; conditions: 150 nM enzyme, 1 μM ATP, 90 mins
# T1 construct: Constructs lacking the N-terminal 144 aa; His tag (C); made in house; host or cells: Tn5 insect cells, baculovirus BV950; construct from the Roger Williams lab (MRC LMB)
# PI3Kδ = target: T2, PI3Kδ (Homo sapiens, UniProt O00329); assay: PI3K KinaseGlo assay, PI3Kdelta; conditions: 10 nM enzyme, 1 μM ATP, 30 mins
# T2 construct: His tag (C); made in house; host or cells: Tn5 insect cells, baculovirus BV1060 (vector LR415)
# PI3Kβ = target: T3, PI3Kβ (Homo sapiens, UniProt P42338); assay: PI3K KinaseGlo assay, PI3Kbeta; conditions: 25 nM enzyme, 1 μM ATP, 30 mins
# T3 construct: His tag (C); made in house; host or cells: Tn5 insect cells, baculovirus BV949 (vector LR280)
# PI3Kα = target: T4, PI3Kα (Homo sapiens, UniProt P42336); assay: PI3K KinaseGlo assay, PI3Kalpha; conditions: 10 nM enzyme, 1 μM ATP, 30 mins
# T4 construct: His tag (C); made in house; host or cells: Tn5 insect cells, baculovirus BV-1075
# T4 sequence (P42336 with tags, fused parts or gaps): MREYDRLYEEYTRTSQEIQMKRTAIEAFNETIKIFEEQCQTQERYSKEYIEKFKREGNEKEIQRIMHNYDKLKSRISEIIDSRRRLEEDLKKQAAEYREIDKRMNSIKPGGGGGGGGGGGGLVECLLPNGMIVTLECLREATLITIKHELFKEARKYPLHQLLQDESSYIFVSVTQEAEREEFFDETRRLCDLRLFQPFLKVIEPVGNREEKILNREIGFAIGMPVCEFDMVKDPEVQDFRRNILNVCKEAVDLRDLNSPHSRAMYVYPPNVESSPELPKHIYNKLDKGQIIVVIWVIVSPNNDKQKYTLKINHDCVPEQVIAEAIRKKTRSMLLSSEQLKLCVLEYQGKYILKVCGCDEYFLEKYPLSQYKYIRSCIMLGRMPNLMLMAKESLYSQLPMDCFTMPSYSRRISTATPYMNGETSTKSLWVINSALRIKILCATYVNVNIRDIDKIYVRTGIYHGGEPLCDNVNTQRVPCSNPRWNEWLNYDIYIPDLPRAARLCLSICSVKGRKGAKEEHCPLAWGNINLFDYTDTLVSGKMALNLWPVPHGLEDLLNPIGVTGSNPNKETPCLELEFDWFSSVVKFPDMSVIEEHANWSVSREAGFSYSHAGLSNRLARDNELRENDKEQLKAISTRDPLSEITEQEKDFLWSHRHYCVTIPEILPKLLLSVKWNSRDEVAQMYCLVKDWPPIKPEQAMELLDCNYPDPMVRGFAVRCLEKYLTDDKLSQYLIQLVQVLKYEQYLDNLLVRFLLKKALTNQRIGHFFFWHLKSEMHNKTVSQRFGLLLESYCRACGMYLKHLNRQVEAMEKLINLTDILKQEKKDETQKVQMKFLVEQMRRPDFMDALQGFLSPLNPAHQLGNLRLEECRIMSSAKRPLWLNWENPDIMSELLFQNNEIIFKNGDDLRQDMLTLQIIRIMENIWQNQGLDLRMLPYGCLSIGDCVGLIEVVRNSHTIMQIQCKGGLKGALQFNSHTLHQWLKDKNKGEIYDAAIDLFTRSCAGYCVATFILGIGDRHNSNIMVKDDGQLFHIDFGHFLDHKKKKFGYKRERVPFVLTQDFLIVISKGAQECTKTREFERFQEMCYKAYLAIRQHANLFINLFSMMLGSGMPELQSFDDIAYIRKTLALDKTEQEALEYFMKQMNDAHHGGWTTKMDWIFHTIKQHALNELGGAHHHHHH
# T1 sequence (P48736 with tags, fused parts or gaps Q459R): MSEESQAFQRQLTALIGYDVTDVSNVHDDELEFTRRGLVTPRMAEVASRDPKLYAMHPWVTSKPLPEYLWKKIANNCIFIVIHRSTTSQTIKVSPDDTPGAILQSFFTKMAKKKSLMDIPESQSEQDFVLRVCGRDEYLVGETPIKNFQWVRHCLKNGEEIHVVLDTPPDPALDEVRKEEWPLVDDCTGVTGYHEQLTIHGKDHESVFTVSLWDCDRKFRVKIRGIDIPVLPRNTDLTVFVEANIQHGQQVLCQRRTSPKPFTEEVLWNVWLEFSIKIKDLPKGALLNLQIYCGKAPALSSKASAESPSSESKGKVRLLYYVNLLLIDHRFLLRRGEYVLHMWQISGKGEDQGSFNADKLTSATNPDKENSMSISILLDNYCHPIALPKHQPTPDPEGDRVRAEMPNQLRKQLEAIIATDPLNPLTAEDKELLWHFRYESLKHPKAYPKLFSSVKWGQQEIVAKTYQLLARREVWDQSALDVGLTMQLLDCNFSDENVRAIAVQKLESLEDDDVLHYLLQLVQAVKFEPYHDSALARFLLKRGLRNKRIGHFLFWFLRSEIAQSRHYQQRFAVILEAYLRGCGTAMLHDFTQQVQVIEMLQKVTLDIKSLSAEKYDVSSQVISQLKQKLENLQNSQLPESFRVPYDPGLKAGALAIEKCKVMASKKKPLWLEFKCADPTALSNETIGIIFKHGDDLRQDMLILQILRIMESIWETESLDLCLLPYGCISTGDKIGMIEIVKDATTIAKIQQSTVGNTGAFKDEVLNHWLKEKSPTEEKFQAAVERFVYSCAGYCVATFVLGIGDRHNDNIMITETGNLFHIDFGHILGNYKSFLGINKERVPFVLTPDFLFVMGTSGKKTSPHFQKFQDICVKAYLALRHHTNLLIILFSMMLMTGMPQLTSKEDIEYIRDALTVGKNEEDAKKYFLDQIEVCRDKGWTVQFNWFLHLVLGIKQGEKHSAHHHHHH
# T3 sequence (P42338 with tags, fused parts or gaps): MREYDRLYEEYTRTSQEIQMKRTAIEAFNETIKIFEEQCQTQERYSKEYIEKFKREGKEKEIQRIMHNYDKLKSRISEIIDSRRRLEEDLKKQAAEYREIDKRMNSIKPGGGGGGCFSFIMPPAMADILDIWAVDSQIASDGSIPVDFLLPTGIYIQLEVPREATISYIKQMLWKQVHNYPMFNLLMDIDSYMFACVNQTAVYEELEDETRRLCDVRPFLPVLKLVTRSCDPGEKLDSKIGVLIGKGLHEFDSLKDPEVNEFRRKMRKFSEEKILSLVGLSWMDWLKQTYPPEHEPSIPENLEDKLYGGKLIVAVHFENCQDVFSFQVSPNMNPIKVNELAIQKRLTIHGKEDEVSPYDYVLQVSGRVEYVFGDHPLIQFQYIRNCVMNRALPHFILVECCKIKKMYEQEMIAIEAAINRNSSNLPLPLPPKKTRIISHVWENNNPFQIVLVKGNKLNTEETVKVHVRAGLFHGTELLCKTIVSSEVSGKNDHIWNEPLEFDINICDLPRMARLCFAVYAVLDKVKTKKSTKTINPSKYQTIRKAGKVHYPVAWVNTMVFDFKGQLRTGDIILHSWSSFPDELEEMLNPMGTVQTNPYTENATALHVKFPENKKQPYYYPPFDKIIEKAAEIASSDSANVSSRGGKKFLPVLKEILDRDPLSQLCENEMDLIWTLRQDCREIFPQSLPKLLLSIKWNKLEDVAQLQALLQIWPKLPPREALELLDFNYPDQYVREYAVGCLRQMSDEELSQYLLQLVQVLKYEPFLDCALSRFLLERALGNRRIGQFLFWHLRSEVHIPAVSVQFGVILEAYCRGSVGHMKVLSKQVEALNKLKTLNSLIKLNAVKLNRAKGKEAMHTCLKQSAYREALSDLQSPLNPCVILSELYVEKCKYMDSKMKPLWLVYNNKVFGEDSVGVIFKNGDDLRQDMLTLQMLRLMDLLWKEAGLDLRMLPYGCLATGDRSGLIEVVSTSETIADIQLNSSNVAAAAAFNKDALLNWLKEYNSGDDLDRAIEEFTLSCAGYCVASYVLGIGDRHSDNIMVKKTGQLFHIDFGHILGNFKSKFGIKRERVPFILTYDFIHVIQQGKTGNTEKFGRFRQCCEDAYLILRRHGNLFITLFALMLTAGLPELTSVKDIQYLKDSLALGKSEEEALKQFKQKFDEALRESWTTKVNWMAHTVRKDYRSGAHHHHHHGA
# T2 sequence (O00329 with tags, fused parts or gaps): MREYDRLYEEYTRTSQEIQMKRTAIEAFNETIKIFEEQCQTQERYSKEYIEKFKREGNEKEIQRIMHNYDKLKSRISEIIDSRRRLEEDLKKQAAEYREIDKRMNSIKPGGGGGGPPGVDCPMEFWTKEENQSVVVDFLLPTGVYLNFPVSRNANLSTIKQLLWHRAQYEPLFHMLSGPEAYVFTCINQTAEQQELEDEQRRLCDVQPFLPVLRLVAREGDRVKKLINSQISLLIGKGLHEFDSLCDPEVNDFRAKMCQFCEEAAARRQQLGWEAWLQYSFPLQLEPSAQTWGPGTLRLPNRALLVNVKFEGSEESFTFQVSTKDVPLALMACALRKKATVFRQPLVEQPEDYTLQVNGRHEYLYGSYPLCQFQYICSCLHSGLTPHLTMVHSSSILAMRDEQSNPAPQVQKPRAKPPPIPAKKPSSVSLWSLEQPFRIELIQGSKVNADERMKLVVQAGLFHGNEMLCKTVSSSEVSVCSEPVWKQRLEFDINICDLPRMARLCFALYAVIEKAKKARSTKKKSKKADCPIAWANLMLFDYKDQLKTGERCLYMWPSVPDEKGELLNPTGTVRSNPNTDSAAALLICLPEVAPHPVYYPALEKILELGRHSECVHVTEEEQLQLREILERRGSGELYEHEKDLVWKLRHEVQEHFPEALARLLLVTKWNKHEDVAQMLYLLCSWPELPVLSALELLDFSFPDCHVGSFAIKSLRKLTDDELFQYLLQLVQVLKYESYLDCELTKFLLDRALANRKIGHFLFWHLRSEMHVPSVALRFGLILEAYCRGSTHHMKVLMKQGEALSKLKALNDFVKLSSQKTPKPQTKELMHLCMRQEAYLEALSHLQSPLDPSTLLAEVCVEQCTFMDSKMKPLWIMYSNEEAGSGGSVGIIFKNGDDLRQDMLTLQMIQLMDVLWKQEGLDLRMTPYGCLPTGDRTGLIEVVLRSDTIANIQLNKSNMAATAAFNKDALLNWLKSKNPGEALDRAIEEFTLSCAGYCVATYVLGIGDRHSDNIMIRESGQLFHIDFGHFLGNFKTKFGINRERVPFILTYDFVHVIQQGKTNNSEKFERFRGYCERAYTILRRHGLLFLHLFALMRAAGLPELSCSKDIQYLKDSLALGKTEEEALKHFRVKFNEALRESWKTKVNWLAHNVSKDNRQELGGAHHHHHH
Compound,IC50 (PI3Kγ) [nM],IC50 (PI3Kδ) [nM],IC50 (PI3Kβ) [nM],IC50 (PI3Kα) [nM]
"CCN(CC)c1ncc2c(n1)-c1sc(NC(=O)N3C[C@@H](N(C)C)C[C@H]3C(N)=O)nc1CC2 [Example 22, (2S,4S)-4-Dimethylamino-pyrrolidine-1,2-dicarboxylic acid 2-amide 1-[(8-diethylamino-4,5-dihydro-thiazolo[4,5-h]quinazolin-2-yl)-amide]]",262,1900,6900,23.5
"CCN(CC)c1ncc2c(n1)-c1sc(NC(=O)N3CC[C@H](C)[C@H]3C(N)=O)nc1CC2 [Example 2, (2S,3S)-3-Methyl-pyrrolidine-1,2-dicarboxylic acid 2-amide 1-[(8-diethylamino-4,5-dihydro-thiazolo[4,5-h]quinazolin-2-yl)-amide]]",90,30,332,5.5
"(R)-2-Benzyl-pyrrolidine-1,2-dicarboxylic acid 2-amide 1-[(8-diethylamino-4,5-dihydro-thiazolo[4,5-h]quinazolin-2-yl)-amide] [Example 3]",1590,740,127,45
"CC(C)(C)c1nc2c(s1)CCc1nc(NC(=O)N3CC[C@@H](CN4CCOCC4)[C@H]3C(N)=O)sc1-2 [Example 41, (2S,3S)-3-Morpholin-4-ylmethyl-pyrrolidine-1,2-dicarboxylic acid 2-amide 1-[(7-tert-butyl-4,5-dihydro-benzo[1,2-d;3,4-d′]bisthiazol-2-yl)-amide]]",,496,3050,24
"CC(C)(C)c1nc2c(s1)CCc1nc(NC(=O)N3CC[C@H]3C(N)=O)sc1-2 [Example 30, (S)-Azetidine-1,2-dicarboxylic acid 2-amide 1-[(7-tert-butyl-4,5-dihydro-benzo[1,2-d;3,4-d′]bisthiazol-2-yl)-amide]]",119,294,2140,23
"COC[C@@H]1CCN(C(=O)Nc2nc3c(s2)-c2nc(C(C)(C)C)ncc2CC3)[C@@H]1C(N)=O [Example 42, (2S,3R)-3-Methoxymethyl-pyrrolidine-1,2-dicarboxylic acid 2-amide 1-[(8-tert-butyl-4,5-dihydro-thiazolo[4,5-h]quinazolin-2-yl)-amide]]",,32,409,8
"CC(C)(CF)c1nc2c(s1)CCc1nc(NC(=O)N3CCC[C@H]3C(N)=O)sc1-2 [Example 32, (S)-Pyrrolidine-1,2-dicarboxylic acid 2-amide 1-{[7-(2-fluoro-1,1-dimethyl-ethyl)-4,5-dihydro-benzo[1,2-d;3,4-d′]bisthiazol-2-yl]-amide}]",131,43,1090,7
"COC[C@@H]1CCN(C(=O)Nc2nc3c(s2)-c2nc(C(C)(C)C(F)(F)F)ncc2CC3)[C@@H]1C(N)=O [Example 45, (2S,3R)-3-Methoxymethyl-pyrrolidine-1,2-dicarboxylic acid 2-amide 1-{[8-(2,2,2-trifluoro-1,1-dimethyl-ethyl)-4,5-dihydro-thiazolo[4,5-h]quinazolin-2-yl]-amide}]",,24,61,6.5
"CC(C)(C)c1ncc2c(n1)-c1sc(NC(=O)N3CC[C@@H](O)[C@H]3C(N)=O)nc1CC2 [Example 38, (2S,3R)-3-Hydroxy-pyrrolidine-1,2-dicarboxylic acid 2-amide 1-[(8-tert-butyl-4,5-dihydro-thiazolo[4,5-h]quinazolin-2-yl)-amide]]",,44,866,9
"CN(Cc1cccc(F)c1)C[C@@]1(C(N)=O)CCCN1C(=O)Nc1nc2c(s1)-c1nc(C(C)(C)C)ncc1CC2 [Example 10, (R)-2-{[(3-Fluoro-benzyl)-methyl-amino]-methyl}-pyrrolidine-1,2-dicarboxylic acid 2-amide 1-[(8-tert-butyl-4,5-dihydro-thiazolo[4,5-h]quinazolin-2-yl)-amide]]",282,54,449,18
"CCN(CC)c1ncc2c(n1)-c1sc(NC(=O)N3CCC[C@H]3C(N)=O)nc1CC2 [Example 12, (S)-Pyrrolidine-1,2-dicarboxylic acid 2-amide 1-[(8-diethylamino-4,5-dihydro-thiazolo[4,5-h]quinazolin-2-yl)-amide]]",230,53,516,6
"CCN(CC)c1ncc2c(n1)-c1sc(NC(=O)N3CCC[C@@]3(C)C(N)=O)nc1CC2 [Example 4, (S)-2-Methyl-pyrrolidine-1,2-dicarboxylic acid 2-amide 1-[(8-diethylamino-4,5-dihydro-thiazolo[4,5-h]quinazolin-2-yl)-amide]]",176,220,143,6.5
"CCN(CC)c1ncc2c(n1)-c1sc(NC(=O)N3C[C@@H](F)C[C@H]3C(N)=O)nc1CC2 [Example 17, (2S,4S)-4-Fluoro-pyrrolidine-1,2-dicarboxylic acid 2-amide 1-[(8-diethylamino-4,5-dihydro-thiazolo[4,5-h]quinazolin-2-yl)-amide]]",153,236,389,8
"CCN(CC)c1ncc2c(n1)-c1sc(NC(=O)N3CC[C@H]3C(N)=O)nc1CC2 [Example 13, (S)-Azetidine-1,2-dicarboxylic acid 2-amide 1-[(8-diethylamino-4,5-dihydro-thiazolo[4,5-h]quinazolin-2-yl)-amide]]",104,118,277,9
"CC(C)(C)c1ncc2c(n1)-c1sc(NC(=O)N3CCC[C@@]3(CO)C(N)=O)nc1CC2 [Example 9, (R)-2-Hydroxymethyl-pyrrolidine-1,2-dicarboxylic acid 2-amide 1-[(8-tert-butyl-4,5-dihydro-thiazolo[4,5-h]quinazolin-2-yl)-amide]]",141,72,87,8.5
"CCN(CC)c1ncc2c(n1)-c1sc(NC(=O)N3C[C@H](F)C[C@H]3C(N)=O)nc1CC2 [Example 16, (2S,4R)-4-Fluoro-pyrrolidine-1,2-dicarboxylic acid 2-amide 1-[(8-diethylamino-4,5-dihydro-thiazolo[4,5-h]quinazolin-2-yl)-amide]]",74,60,297,5.5
"C[C@@H]1CCN(C(=O)Nc2nc3c(s2)-c2cc(C(C)(C)C(F)(F)F)ncc2OC3)[C@@H]1C(N)=O [Example 48, (2S,3R)-3-Methyl-pyrrolidine-1,2-dicarboxylic acid 2-amide 1-{[8-(2,2,2-trifluoro-1,1-dimethyl-ethyl)-4H-5-oxa-1-thia-3,7-diaza-cyclopenta[a]naphthalen-2-yl]-amide}]",,19,920,6
"CCN(CC)c1ncc2c(n1)-c1sc(NC(=O)N3CC[C@@H](C)[C@H]3C(N)=O)nc1CC2 [Example 21, (2S,3R)-3-Methyl-pyrrolidine-1,2-dicarboxylic acid 2-amide 1-[(8-diethylamino-4,5-dihydro-thiazolo[4,5-h]quinazolin-2-yl)-amide]]",237,36,519,< 3
"CN(C)C[C@@H]1CCN(C(=O)Nc2nc3c(s2)-c2cc(C(C)(C)C)ncc2OC3)[C@@H]1C(N)=O [Example 47, (2S,3S)-3-Dimethylaminomethyl-pyrrolidine-1,2-dicarboxylic acid 2-amide 1-[(8-tert-butyl-4H-5-oxa-1-thia-3,7-diaza-cyclopenta[a]naphthalen-2-yl)-amide]]",,1620,6170,3
"CC(C)(C)c1ncc2c(n1)-c1sc(NC(=O)N3CC[C@@H](CN4CCOCC4)[C@H]3C(N)=O)nc1CC2 [Example 37, (2S,3S)-3-Morpholin-4-ylmethyl-pyrrolidine-1,2-dicarboxylic acid 2-amide 1-[(8-tert-butyl-4,5-dihydro-thiazolo[4,5-h]quinazolin-2-yl)-amide]]",,19,182,4
"CC(=O)NC[C@@H]1CCN(C(=O)Nc2nc3c(s2)-c2nc(C(C)(C)C)ncc2CC3)[C@@H]1C(N)=O [Example 36, (2S,3S)-3-(Acetylamino-methyl)-pyrrolidine-1,2-dicarboxylic acid 2-amide 1-[(8-tert-butyl-4,5-dihydro-thiazolo[4,5-h]quinazolin-2-yl)-amide]]",,40,510,12
"COC[C@@H]1CCN(C(=O)Nc2nc3c(s2)-c2nc(C(C)(C)C(F)(F)F)sc2CC3)[C@@H]1C(N)=O [Example 50, (2S,3R)-3-Methoxymethyl-pyrrolidine-1,2-dicarboxylic acid 2-amide 1-{[7-(2,2,2-trifluoro-1,1-dimethyl-ethyl)-4,5-dihydro-benzo[1,2-d;3,4-d′]bisthiazol-2-yl]-amide}]",,113,555,9
"C[C@@H]1CCN(C(=O)Nc2nc3c(s2)-c2cc(C(C)(C)C)ncc2OC3)[C@@H]1C(N)=O [Example 46, (2S,3R)-3-Methyl-pyrrolidine-1,2-dicarboxylic acid 2-amide 1-[(8-tert-butyl-4H-5-oxa-1-thia-3,7-diaza-cyclopenta[a]naphthalen-2-yl)-amide]]",,157,1150,5.5
